Some results are limits rather than exact numbers.

In this assay the target is T1, human TGR5 (Homo sapiens, UniProt Q8TDU6).
T1 construct: expressed in transfected cells; host or cells: HEK293
T1 sequence (Q8TDU6 1-330): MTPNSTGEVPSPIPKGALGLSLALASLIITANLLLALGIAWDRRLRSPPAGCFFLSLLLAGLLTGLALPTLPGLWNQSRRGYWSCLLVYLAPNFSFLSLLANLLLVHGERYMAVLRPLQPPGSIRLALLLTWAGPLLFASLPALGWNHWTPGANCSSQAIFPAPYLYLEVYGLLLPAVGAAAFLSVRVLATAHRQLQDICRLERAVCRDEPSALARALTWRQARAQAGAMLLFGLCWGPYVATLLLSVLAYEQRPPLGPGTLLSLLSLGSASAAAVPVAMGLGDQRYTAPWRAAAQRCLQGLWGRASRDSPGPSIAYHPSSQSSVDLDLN
Briefly: Cell-based TGR5 assay (cAMP generation, HTRF). The following applies: HEK293 cells stably transfected with human TGR5; cAMP by HTRF; 30 minutes at 37° C.; read-out: pEC50 Human TGR5 (converted). The gist of the method: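 First, compounds in 3-fold serial dilution were placed in HBSS with 10 mM HEPES pH 7.4 and 0.5 mM IBMX. Next, human TGR5-expressing HEK293 cells were added and incubated 30 min at 37° C. Finally, cAMP was detected by HTRF and pEC50 derived by logistic fitting.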
Regarding `CC(=O)NCCCN(CCCCSc1ccc(Cl)c(COC2(c3cnccc3-c3ccccc3OC3CC3)CC2)c1)C(=O)[C@@H](O)[C@@H](O)[C@H](O)[C@@H](O)CO` [Compound I-566, (2S,3S,4R,5S)-N-(4-{[4-chloro-3-({1-[4-(2-cyclopropoxyphenyl)pyridin-3-yl]cyclopropoxy}methyl)phenyl]sulfanyl}butyl)-N-(3-acetamidopropyl)-2,3,4,5,6-pentahydroxyhexanamide], the EC50 is under 100 nM. For `CC(=O)NCCCCN(CCCCSc1ccc(Cl)c(CNC2(c3cnccc3-c3ccccc3OC3CC3)CC2)c1)C(=O)[C@@H](O)[C@@H](O)[C@H](O)[C@@H](O)CO` [Compound I-567, (2S,3S,4R,5S)-N-[4-({4-chloro-3-[({1-[4-(2-cyclopropoxyphenyl)pyridin-3-yl]cyclopropyl}amino)methyl]phenyl}sulfanyl)butyl]-N-(4-acetamidobutyl)-2,3,4,5,6-pentahydroxyhexanamide], the EC50 was 126 to 1000 nM. As for `CC(=O)NCCCCN(CCCCSc1ccc(Cl)c(COC2(c3cnccc3-c3ccccc3OC3CC3)CC2)c1)C(=O)[C@@H](O)[C@@H](O)[C@H](O)[C@@H](O)CO` [Compound I-568, (2S,3S,4R,5S)-N-(4-{[4-chloro-3-({1-[4-(2-cyclopropoxyphenyl)pyridin-3-yl]cyclopropoxy}methyl)phenyl]sulfanyl}butyl)-N-(4-acetamidobutyl)-2,3,4,5,6-pentahydroxyhexanamide], the EC50 was under 100 nM. On to `O=C([C@@H](O)[C@@H](O)[C@H](O)[C@@H](O)CO)N(CCCCSc1ccc(Cl)c(COC2(c3cnccc3-c3ccccc3OC3CC3)CC2)c1)C1CCS(=O)(=O)CC1` [Compound I-569, (2S,3S,4R,5S)-N-(4-{[4-chloro-3-({1-[4-(2-cyclopropoxyphenyl)pyridin-3-yl]cyclopropoxy}methyl)phenyl]sulfanyl}butyl)-N-(1,1-dioxo-1λ^6-thian-4-yl)-2,3,4,5,6-pentahydroxyhexanamide], for which the EC50 was 126 to 1000 nM. With `CS(=O)(=O)NCCCCN(CCCCSc1ccc(Cl)c(COC2(c3cnccc3-c3ccccc3OC3CC3)CC2)c1)C(=O)[C@@H](O)[C@@H](O)[C@H](O)[C@@H](O)CO` [Compound I-570, (2S,3S,4R,5S)-N-(4-{[4-chloro-3-({1-[4-(2-cyclopropoxyphenyl)pyridin-3-yl]cyclopropoxy}methyl)phenyl]sulfanyl}butyl)-2,3,4,5,6-pentahydroxy-N-(4-methanesulfonamidobutyl) hexanamide] the figure was under 100 nM; with `CS(=O)(=O)NCCN(CCCCSc1ccc(Cl)c(CNC2(c3cnccc3-c3ccccc3OC3CC3)CC2)c1)C(=O)[C@@H](O)[C@@H](O)[C@H](O)[C@@H](O)CO` [Compound I-571, (2S,3S,4R,5S)-N-[4-({4-chloro-3-[({1-[4-(2-cyclopropoxyphenyl)pyridin-3-yl]cyclopropyl}amino)methyl]phenyl}sulfanyl)butyl]-2,3,4,5,6-pentahydroxy-N-(2-methanesulfonamidoethyl) hexanamide], under 100 nM; with `CCOC(=O)NCCN(CCCCSc1ccc(Cl)c(CNC2(c3cnccc3-c3ccccc3OC3CC3)CC2)c1)C(=O)[C@@H](O)[C@@H](O)[C@H](O)[C@@H](O)CO` [Compound I-572, ethyl N-{2-[(2S,3S,4R,5S)-N-[4-({4-chloro-3-[({1-[4-(2-cyclopropoxyphenyl)pyridin-3-yl]cyclopropyl}amino)methyl]phenyl}sulfanyl)butyl]-2,3,4,5,6-pentahydroxyhexanamido]ethyl}carbamate], under 100 nM.

`CC(=O)NCCCN(CCCCSc1ccc(Cl)c(CNC2(c3cnccc3-c3ccccc3OC3CC3)CC2)c1)C(=O)[C@@H](O)[C@@H](O)[C@H](O)[C@@H](O)CO` [Compound I-573, (2S,3S,4R,5S)-N-[4-({4-chloro-3-[({1-[4-(2-cyclopropoxyphenyl)pyridin-3-yl]cyclopropyl}amino)methyl]phenyl}sulfanyl)butyl]-N-(3-acetamidopropyl)-2,3,4,5,6-pentahydroxyhexanamide]: the EC50 was 126 to 1000 nM. Next, `CCOC(=O)NCCCN(CCCCSc1ccc(Cl)c(CNC2(c3cnccc3-c3ccccc3OC3CC3)CC2)c1)C(=O)[C@@H](O)[C@@H](O)[C@H](O)[C@@H](O)CO` [Compound I-574, ethyl N-{3-[(2S,3S,4R,5S)-N-[4-({4-chloro-3-[({1-[4-(2-cyclopropoxyphenyl)pyridin-3-yl]cyclopropyl}amino)methyl]phenyl}sulfanyl)butyl]-2,3,4,5,6-pentahydroxyhexanamido]propyl}carbamate]: under 100 nM; `CS(=O)(=O)NCCN(CCCCSc1ccc(Cl)c(COC2(c3cnccc3-c3ccccc3OC3CC3)CC2)c1)C(=O)[C@@H](O)[C@@H](O)[C@H](O)[C@@H](O)CO` [Compound I-575, (2S,3S,4R,5S)-N-(4-{[4-chloro-3-({1-[4-(2-cyclopropoxyphenyl)pyridin-3-yl]cyclopropoxy}methyl)phenyl]sulfanyl}butyl)-2,3,4,5,6-pentahydroxy-N-(2-methanesulfonamidoethyl) hexanamide]: under 100 nM. For `CCOC(=O)NCCN(CCCCSc1ccc(Cl)c(COC2(c3cnccc3-c3ccccc3OC3CC3)CC2)c1)C(=O)[C@@H](O)[C@@H](O)[C@H](O)[C@@H](O)CO` [Compound I-576, ethyl N-{2-[(2S,3S,4R,5S)-N-(4-{[4-chloro-3-({1-[4-(2-cyclopropoxyphenyl)pyridin-3-yl]cyclopropoxy}methyl)phenyl]sulfanyl}butyl)-2,3,4,5,6-pentahydroxyhexanamido]ethyl}carbamate], the EC50 was under 100 nM. Turning to `CS(=O)(=O)NCCCN(CCCCSc1ccc(Cl)c(COC2(c3cnccc3-c3ccccc3OC3CC3)CC2)c1)C(=O)[C@@H](O)[C@@H](O)[C@H](O)[C@@H](O)CO` [Compound I-577, (2S,3S,4R,5S)-N-(4-{[4-chloro-3-({1-[4-(2-cyclopropoxyphenyl)pyridin-3-yl]cyclopropoxy}methyl)phenyl]sulfanyl}butyl)-2,3,4,5,6-pentahydroxy-N-(3-methanesulfonamidopropyl) hexanamide], the EC50 is under 100 nM. For `CCOC(=O)NCCCN(CCCCSc1ccc(Cl)c(COC2(c3cnccc3-c3ccccc3OC3CC3)CC2)c1)C(=O)[C@@H](O)[C@@H](O)[C@H](O)[C@@H](O)CO` [Compound I-578, ethyl N-{3-[(2S,3S,4R,5S)-N-(4-{[4-chloro-3-({1-[4-(2-cyclopropoxyphenyl)pyridin-3-yl]cyclopropoxy}methyl)phenyl]sulfanyl}butyl)-2,3,4,5,6-pentahydroxyhexanamido]propyl}carbamate], the EC50 was under 100 nM.

Regarding `CC(=O)NCCCCN(CCCSc1ccc(Cl)c(COC2(c3cnccc3-c3ccccc3OC3CC3)CC2)c1)C(=O)[C@@H](O)[C@@H](O)[C@H](O)[C@@H](O)CO` [Compound I-579, (2S,3S,4R,5S)-N-(3-{[4-chloro-3-({1-[4-(2-cyclopropoxyphenyl)pyridin-3-yl]cyclopropoxy}methyl)phenyl]sulfanyl}propyl)-N-(4-acetamidobutyl)-2,3,4,5,6-pentahydroxyhexanamide], the EC50 is under 100 nM. Next, `CS(=O)(=O)NCCCCN(CCCSc1ccc(Cl)c(COC2(c3cnccc3-c3ccccc3OC3CC3)CC2)c1)C(=O)[C@@H](O)[C@@H](O)[C@H](O)[C@@H](O)CO` [Compound I-580, (2S,3S,4R,5S)-N-(3-{[4-chloro-3-({1-[4-(2-cyclopropoxyphenyl)pyridin-3-yl]cyclopropoxy}methyl)phenyl]sulfanyl}propyl)-2,3,4,5,6-pentahydroxy-N-(4-methanesulfonamidobutyl) hexanamide]: 126 to 1000 nM; `O=C([C@@H](O)[C@@H](O)[C@H](O)[C@@H](O)CO)N(CCCCSc1ccc(Cl)c(CNC2(c3cnccc3-c3ccccc3OC3CC3)CC2)c1)C1CCS(=O)(=O)CC1` [Compound I-581, (2S,3S,4R,5S)-N-[4-({4-chloro-3-[({1-[4-(2-cyclopropoxyphenyl)pyridin-3-yl]cyclopropyl}amino)methyl]phenyl}sulfanyl)butyl]-N-(1,1-dioxo-1λ^6-thian-4-yl)-2,3,4,5,6-pentahydroxyhexanamide]: under 100 nM. For the compound `CS(=O)(=O)NCCCCN(CCCCSc1ccc(Cl)c(CNC2(c3cnccc3-c3ccccc3OC3CC3)CC2)c1)C(=O)[C@@H](O)[C@@H](O)[C@H](O)[C@@H](O)CO` [Compound I-582, (2S,3S,4R,5S)-N-[4-({4-chloro-3-[({1-[4-(2-cyclopropoxyphenyl)pyridin-3-yl]cyclopropyl}amino)methyl]phenyl}sulfanyl)butyl]-2,3,4,5,6-pentahydroxy-N-(4-methanesulfonamidobutyl) hexanamide], the EC50 is under 100 nM. For the compound `CS(=O)(=O)CCN(CCCSc1ccc(Cl)c(CNC2(c3cnccc3-c3ccccc3OC3CC3)CC2)c1)C(=O)[C@@H](O)[C@@H](O)[C@H](O)[C@@H](O)CO` [Compound I-583, (2S,3S,4R,5S)-N-[3-({4-chloro-3-[({1-[4-(2-cyclopropoxyphenyl)pyridin-3-yl]cyclopropyl}amino)methyl]phenyl}sulfanyl)propyl]-2,3,4,5,6-pentahydroxy-N-(2-methanesulfonylethyl) hexanamide], the EC50 was 126 to 1000 nM.

The values are drawn from patent US12084472B2 (Ardelyx, Inc., priority 2015, dated 2024).
